“Also recorded” adds a separate entry of the source.
Assays:
[1] = system: MT330 cells; experiment: γH2Ax immunostaining after bleomycin; assay type: cell-based; conditions: bleomycin alone (0.5 and 2 μM), 1 hr, FIG. 8
Description: After 1 hr of bleomycin treatment cell death, cells were fixed and immunostained for γH2Ax. Analysis of immunostaining was performed on at least 1,000 cells on the Lionheart FX imaging system.
Bleomycin is a chemotherapeutic drug that is used to treat various cancers. […] Thus, the ability of bleomycin to induce DNA damage as evidence by immunostaining of MT330 cells and LN229 with γH2Ax was tested. Quantification of cell staining was determined on the Lionheart FX imaging station.

[2] = system: MT330 GBM cells; experiment: Cell death ELISA in MT330 GBM cells; assay type: cell-based; conditions: for TMZ sensitivity (TMZ-induced cell death): TMZ (500 μM) and bromodomain inhibitors (10 μM), 24 hr, FIG. 6A
[3] = molecular target: T1, BRG1 bromodomain (Homo sapiens, UniProt P51532); experiment: Cellular thermal shift assay (CETSA), BRG1 bromodomain construct in MT330 cells; assay type: binding; parameters: binding to the BRG1 BRD: dose or concentration left out as unconfirmed; conditions: for thermostability of the BRG1 BRD: 30 μM, heating 44.5° C. to 55.6° C. for 5 min, immunoblot; for binding to the BRG1 BRD: CETSA, FIG. 6C; for selectivity BRG1 versus BRM bromodomain: conclusion from CETSA and knockout cells
T1 construct: expressed in transfected cells; host or cells: MT330 glioblastoma cells
Description: After heating over a temperature range from 44.5° C. to 55.6° C. for 5 min, the cells were lysed, placed on ice at 4° C. and then immunoblotted for BRG1 or actin.
(§1) For the CETSA, MT330 cells expressing the BRM (FIG. 6B), or BRG1 (FIG. 6C) the BRD construct were treated with bromodomain inhibitors […] and immunoblotted as indicated.
(§2) After heating over a temperature range from 44.5° C. to 55.6° C. for 5 min, MT330 cells were lysed and then immunoblotted for BRG1 or BRM.

[4] = molecular target: T2, BRM bromodomain (Homo sapiens, UniProt P51531); experiment: Cellular thermal shift assay (CETSA), BRM bromodomain construct in MT330 cells; assay type: binding; parameters: binding to the BRM BRD: dose or concentration left out as unconfirmed; conditions: for thermostability of the BRM BRD: heating 44.5° C. to 55.6° C. for 5 min, immunoblot; for binding to the BRM BRD: CETSA, FIG. 6B
T2 construct: expressed in transfected cells; host or cells: MT330 glioblastoma cells
Description: as §1, §2

[5] = system: T98G GBM cells; experiment: IncuCyte live cell imaging proliferation assay; assay type: cell-based; conditions: TMZ (500 μM) plus bromodomain inhibitors (20 μM), FIG. 2
Description: T98G GBM cells were treated with TMZ (500 μM), the bromodomain inhibitors (20 μM), and cell proliferation was determined by Incucyte live cell assays using cellular confluence method. The data was normalized to the calculated cell confluence at day 0. Control cells were treated with vehicle (DMSO).
To further characterize the biological activity of selected bromodomain inhibitors, YH-IV-129, YH-IV-181 and YH-IV-191, IncuCyte live cell imaging proliferation assays were performed with the highly TMZ-resistant T98G GBM cell line.

[6] = system: MT330 GBM cells; experiment: Cell death ELISA in MT330 GBM cells; assay type: cell-based; conditions: for enhancement of TMZ-induced cell death: 10 mM inhibitor in combination with 200 mM of TMZ, 72 hrs, FIG. 1; for enhancement of bleomycin-induced cell death: bleomycin (0.01 μM) and bromodomain inhibitors (10 μM); for enhancement of bleomycin-induced cell death / cell death, inhibitor alone: 72 hr, FIG. 9; for cell death, inhibitor alone: bromodomain inhibitors (10 μM) alone
Description: Control cells were treated with vehicle (DMSO). Cell death was determined at 72 hr after treatment by a cell death ELISA that quantifies histone-complexed DNA fragments. […]
Parental and BRG1 knockout MT330 cells were treated with bleomycin (0.01 μM) and bromodomain inhibitors […]. After 72 hr, cell death was determined by cell death ELISA.
The biological activity of bromodomain inhibitors was assessed for the ability to enhance TMZ-induced cell death. In brief, MT330 cells were treated with […] of bromodomain inhibitors alone, or in combination with […] of TMZ for 72 hrs, and GBM cell death was determined by a commercial ELISA.

[7] = system: LN229 GBM cells; experiment: γH2Ax immunostaining after TMZ; assay type: cell-based; parameters: dose or concentration left out as unconfirmed; conditions: 24 hrs, FIG. 11
Description: After treatment for 24 hrs, cells were fixed and immunostained for gH2Ax. Analysis of immunostaining was performed on a laser confocal microscope.
As TMZ is DNA damaging agent, we tested the ability of various bromodomain inhibitors to enhance TMZ-induced DNA damage as evidence by immunostaining of GBM cells with γH2Ax and examination of the staining on a confocal microscope. γH2AX is the phosphorylated version of the histone variant H2Ax and is a highly specific and sensitive marker for monitoring DNA damage initiation and resolution. […] Similar results were obtained with MT330 GBM cells.

[8] = system: intracranial GBM xenografts (MT330 cells); experiment: Orthotopic GBM model, MT330 cells injected into brains of NSG mice; assay type: in vivo; conditions: for bioluminescent signal in the brain: combination with TMZ (10 mg/Kg), IV-255 or IV-275 (20 mg/Kg) IP 3 times per week, 3-4 weeks after treatment, versus either agent alone, FIG. 10
Description: MT330 cells (10^6) were injected into the brains of NSG female mice. After tumors were identified by BLI (˜10 days post-injection), mice were IP injected with TMZ (60 mg/Kg body weight) or IV-129 (10 mg/Kg) alone or in combination 3 times per week (5 mice per group) for 2 weeks. […] FIG. 5C Kaplan-Meier analysis of the survival data (5 mice/group) of the brain tumor-bearing mice was performed.
MT330 cells […] were injected into the brains of NSG female mice. After tumors were identified by BLI (˜10 days post-injection), mice were IP injected with TMZ (10 mg/Kg body weight), IV-255 or IV-275 (20 mg/Kg) alone or in combination 3 times per week (5 mice/group).
Luciferase-expressing MT330 cells were injected into the brains of immunocompromised NSG mice. Once tumors were identified by bioluminescence imaging (BLI) at ˜10 days after tumor cell injection, mice were subjected to intraperitoneal injection of TMZ or YH-IV-129 alone, or in combination. At 20 days after initiation of treatment, live animal imaging was performed on an IVIS Lumina instrument. […] The mean survival of control mice was 27 days after cell injection (FIG. 5C).
Luciferase-expressing MT330 cells were injected into the brains of immunocompromised NSG mice. Once tumors were identified by bioluminescence imaging (BLI) at ˜10 days after tumor cell injection, mice were subjected to intraperitoneal injection of TMZ or YH-IV-255 or YH-IV-275 alone, or in combination. […] This is compelling preliminary evidence that these two new compounds have potent anticancer activity in intracranial GBM xenografts when combined with standard-of-care TMZ chemotherapy and that these drugs cross the blood-brain barrier.

[9] = system: BRM knockout MT330 cells; experiment: Cell death ELISA in BRM knockout MT330 cells; assay type: cell-based; conditions: TMZ (500 μM) and bromodomain inhibitors (10 μM), 72 hr, FIG. 7
Description: (§3) BRG1 and BRM knockout MT330 cells were treated with TMZ (500 μM) and bromodomain inhibitors (10 μM). After 72 hr, cell death was determined by a cell death ELISA.
(§4) To further characterize the specificity of YH-IV-255 for the BRG1 bromodomain, GBM cell lines were generated with either BRG1 or BRM knocked out by CRISPR/Cas9 gene editing.^14 These cells were isolated by puromycin selection and the knockout of the either subunit was validated by immunoblotting.

[10] = system: BRG1 knockout MT330 cells; experiment: Cell death ELISA in BRG1 knockout MT330 cells; assay type: cell-based; conditions: 72 hr
Description: as §3
Parental and BRG1 knockout MT330 cells were treated with bleomycin (0.01 μM) and bromodomain inhibitors (10 μM). After 72 hr, cell death was determined by cell death ELISA.
as §4

[11] = vehicle control band disappearing at 49.8° C., FIG. 3

T1 sequence (P51532 1453-1564 limits assumed): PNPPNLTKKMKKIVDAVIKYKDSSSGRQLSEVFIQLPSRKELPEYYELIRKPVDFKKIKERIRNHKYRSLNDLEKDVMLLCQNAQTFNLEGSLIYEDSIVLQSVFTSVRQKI
T2 sequence (P51531 1378-1506 limits assumed): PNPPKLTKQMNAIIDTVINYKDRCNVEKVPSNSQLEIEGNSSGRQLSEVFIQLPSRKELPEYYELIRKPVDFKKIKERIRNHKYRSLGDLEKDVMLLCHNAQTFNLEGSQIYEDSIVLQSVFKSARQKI

Molecule: bleomycin [reference compound]
- γH2Ax staining, bleomycin alone [1]: dose dependent increase of γH2Ax staining
- cell death, bleomycin alone ([2]; low dose of bleomycin (0.01 µM), 72 hr, FIG. 9): induced low levels of cell death in MT330 cells

Molecule: COc1ccc(N2C[C@H]3C[C@@H]2CN3C(=O)Nc2ccccc2)cc1 [YH-IV-181, (1R,4R)-5-(4-methoxyphenyl)-N-phenyl-2,5-diazabicyclo[2.2.1]heptane-2-carboxamide]
- thermostability of the BRG1 BRD ([3]; FIG. 3): significantly increased the thermostability
- temperature at which the BRG1 BRD protein band is undetectable [3, 11]: 54.20 °C
- thermostability of the BRM BRD ([4]; FIG. 3): significantly increased the thermostability
- temperature at which the BRM BRD protein band is undetectable [4, 11]: 54.20 °C
- sensitization to the antiproliferative action of TMZ [5]: potently sensitized T98G GBM cells to the antiproliferative action of TMZ

Molecule: COc1ccc(N2C[C@H]3C[C@@H]2CN3C(=O)Oc2ccccc2)cc1 [YH-IV-235, (1R,4R)-phenyl 5-(4-methoxyphenyl)-2,5-diazabicyclo[2.2.1]heptane-2-carboxylate]
- enhancement of TMZ-induced cell death [6]: better efficacy than PFI-3

Molecule: COc1ccc(N2C[C@H]3C[C@@H]2CN3C(=O)Oc2ccc(F)c(F)c2)cc1 [YH-IV-275, (1R,4R)-3,4-difluorophenyl 5-(4-methoxyphenyl)-2,5-diazabicyclo [2.2.1]heptane-2-carboxylate]
- γH2Ax staining, inhibitor with TMZ [7]: marked increase in γH2Ax staining
- TMZ sensitivity (TMZ-induced cell death) [2]: similarly increase the TMZ sensitivity of GBM cells
- binding to the BRG1 BRD [3]: bind equivalently to the BRG1 BRD
- selectivity BRG1 versus BRM bromodomain [3]: inhibitor of both BRG1 and BRM domains
- enhancement of TMZ-induced cell death [6]: better efficacy than PFI-3; also recorded: somewhat more bioactive than YH-IV-129; also recorded: markedly enhanced TMZ sensitivity of GBM cells in vitro as compared to PFI-3
- enhancement of bleomycin-induced cell death [6]: sensitized GBM cells to bleomycin-induced cell death
- cell death, inhibitor alone [6]: none of the bromodomain inhibitors (YH-IV-129, YH-IV-255 and YH-IV-275) alone had any death inducing activity
- bioluminescent signal in the brain [8]: decreased the bioluminescent signal in the brain
- enhancement of TMZ-induced cell death [9]: very similar activity in enhancing the cell death inducing activity in BRM knockout GBM cells
- binding to the BRM BRD [4]: binds well to the BRM BRD

Molecule: COc1ccc(N2C[C@H]3C[C@@H]2CN3C(=O)Nc2ccc(F)cc2)cc1 [YH-IV-211, (1R,4R)-N-(4-fluorophenyl)-5-(4-methoxyphenyl)-2,5-diazabicyclo[2.2.1]heptane-2-carboxamide]
- enhancement of TMZ-induced cell death [6]: better efficacy than PFI-3

Molecule: COc1ccc(N2CCN(C(=O)OC(C)(C)C)CC2)cc1 [YH-IV-189, tert-butyl 4-(4-methoxyphenyl)piperazine-1-carboxylate]
- thermostability of the BRG1 BRD ([3]; FIG. 3): only moderately increased the thermostability
- thermostability of the BRM BRD ([4]; FIG. 3): only moderately increased the thermostability

Molecule: COc1ccc(N2C[C@H]3C[C@@H]2CN3C(=O)Nc2ccc(F)c(F)c2)cc1 [YH-IV-255, (1R,4R)-N-(3,4-difluorophenyl)-5-(4-methoxyphenyl)-2,5-diazabicyclo[2.2.1]heptane-2-carboxamide]
- γH2Ax staining, inhibitor with TMZ [7]: marked increase in γH2Ax staining
- TMZ sensitivity (TMZ-induced cell death) [2]: similarly increase the TMZ sensitivity of GBM cells
- TMZ sensitivity (TMZ-induced cell death) ([2]; listed as IV-255): potent sensitizer to TMZ-induced cell death
- binding to the BRG1 BRD [3]: bind equivalently to the BRG1 BRD
- selectivity BRG1 versus BRM bromodomain [3]: selective BRG1 bromodomain inhibitor; also recorded: selective inhibitor the BRG-1 bromodomain
- selectivity BRG1 versus BRM bromodomain ([3]; listed as IV-255): binds selectively to the BRG1 BRD
- enhancement of TMZ-induced cell death [6]: better efficacy than PFI-3; also recorded: somewhat more bioactive than YH-IV-129; also recorded: markedly enhanced TMZ sensitivity of GBM cells in vitro as compared to PFI-3
- enhancement of bleomycin-induced cell death [6]: sensitized GBM cells to bleomycin-induced cell death
- cell death, inhibitor alone [6]: none of the bromodomain inhibitors (YH-IV-129, YH-IV-255 and YH-IV-275) alone had any death inducing activity
- bioluminescent signal in the brain [8]: decreased the bioluminescent signal in the brain
- enhancement of TMZ-induced cell death ([10]; TMZ (500 μM) and bromodomain inhibitors (10 μM), FIG. 7): no such activity in BRG1 knockout GBM cells; also recorded: not BRG1 knockout cells
- enhancement of bleomycin-induced cell death ([10]; bleomycin (0.01 μM) and bromodomain inhibitors (10 μM), FIG. 9): ablated in BRG1 knockout MT330 cells
- enhancement of TMZ-induced cell death [9]: very similar activity in enhancing the cell death inducing activity in BRM knockout GBM cells; also recorded: sensitized BRM knockout GBM cells
- binding to the BRM BRD [4]: does not bind

Molecule: Cn1nnc2c(C(N)=O)ncn2c1=O [TMZ, temozolomide, reference compound]
- mean survival, either agent alone ([8]; TMZ (60 mg/Kg) or IV-129 (10 mg/Kg) alone IP, control mice 27 days, FIG. 5C): 35 days

Molecule: COc1ccc(N2C[C@H]3C[C@@H]2CN3C(=O)NC(C)(C)C)cc1 [YH-IV-185, (1R,4R)-N-(tert-butyl)-5-(4-methoxyphenyl)-2,5-diazabicyclo[2.2.1]heptane-2-carboxamide]
- thermostability of the BRG1 BRD ([3]; FIG. 3): only moderately increased the thermostability
- thermostability of the BRM BRD ([4]; FIG. 3): only moderately increased the thermostability

— US20240316043A1, “BROMODOMAIN INHIBITORS FOR CANCER THERAPY” (University of Tennessee Research Foundation, priority 2023, published 2024)
